In PMC11720140, “Evaluation of the Anti-Amyloid and Anti-Inflammatory Properties of a Novel Vanadium(IV)–Curcumin Complex in Lipopolysaccharides-Stimulated Primary Rat Neuron-Microglia Mixed Cultures” (International Journal of Molecular Sciences, 2024) one finds EC50 data, which are given here for one compound.

For the test, the target named is T1, human insulin (HI) (Homo sapiens, UniProt P01308).
T1 construct: gene INS; HI (Actrapid)
In words: Thioflavin-T fibrillation assay with insulin ([…] HCl, pH […] °C, […] h). It is filed as biochemical.

SMILES strings stand for the structures.

T1 sequence (P01308 25-54): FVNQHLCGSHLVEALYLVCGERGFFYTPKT
T1 sequence (P01308 90-110): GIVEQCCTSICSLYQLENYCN

Usually EC50 stands for the concentration needed to bring the measured effect to its halfway point. The low end stands for greater potency, the high end for weaker potency. For `COc1cc(/C=C/C(=O)CC(=O)/C=C/c2ccc(O)c(OC)c2)ccc1O` [Curcumin], the concentration for a half-maximal effect (EC50) came to 44.1 µM.
